This is an account of results in patent US8541407B2 (ArQule, Inc., priority 2010, dated 2013).

One experiment deals with AN3-CA. Nature of the experiment: MTS Assay, cell proliferation analysis (AN3-CA). The class given is cell-based. The note with it: Homo sapiens; AN3-CA cells; 72 hours; 10 Percent FBS. The method, then: (§1) Cell proliferation analysis. Cell survival was determined by the MTS assay. Briefly, cells were plated in a 96-well plate at 2,000-10,000 cells per well, cultured for 24 hours in complete growth medium, and then treated with representative compounds of the invention or combinations thereof for 72 hours. MTS was added and incubated for 4 hours, followed by assessment of cell viability by using the microplate reader at 570 nm. Data were normalized to untreated controls and analyzed.

For a further experiment, the system named is IGROV-1. Nature of the experiment: MTS Assay, cell proliferation analysis (IGROV-1). The note with it: Homo sapiens; IGROV-1 cells; 72 hours; 10 Percent FBS. The class given is cell-based. The method, then: as §1
A further experiment concerns A2780. Nature of the experiment: MTS Assay, cell proliferation analysis (A2780). The format is cell-based. The note with it: Homo sapiens; A2780 cells; 72 hours; 10 Percent FBS. How it is done:
as §1

The next experiment deals with AKT1 (Homo sapiens (Human), UniProt P31749). Nature of the experiment: Inactive Akt Alpha Screen Assay. The note with it: non *labeled: Akt Alpha Screen assay; read-out: AKT1 biochemical assay, IC50. Put shortly:
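AKT1 activated in situ by PDK1, MAPKAPK2, lipid vesicles and ATP, then phosphorylating biotinylated crosstide for 30 min at room temperature. Stopped with 10 mM EDTA; phosphopeptide detected by AlphaScreen using phospho-AKT substrate antibody (1:350), Protein A acceptor and streptavidin donor beads, 90 min dark, ex 640/em 570 nm.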

Structures are written as SMILES. Counter-ions that a name gives are not always drawn.

AKT1, sequence (P31749 whole entry): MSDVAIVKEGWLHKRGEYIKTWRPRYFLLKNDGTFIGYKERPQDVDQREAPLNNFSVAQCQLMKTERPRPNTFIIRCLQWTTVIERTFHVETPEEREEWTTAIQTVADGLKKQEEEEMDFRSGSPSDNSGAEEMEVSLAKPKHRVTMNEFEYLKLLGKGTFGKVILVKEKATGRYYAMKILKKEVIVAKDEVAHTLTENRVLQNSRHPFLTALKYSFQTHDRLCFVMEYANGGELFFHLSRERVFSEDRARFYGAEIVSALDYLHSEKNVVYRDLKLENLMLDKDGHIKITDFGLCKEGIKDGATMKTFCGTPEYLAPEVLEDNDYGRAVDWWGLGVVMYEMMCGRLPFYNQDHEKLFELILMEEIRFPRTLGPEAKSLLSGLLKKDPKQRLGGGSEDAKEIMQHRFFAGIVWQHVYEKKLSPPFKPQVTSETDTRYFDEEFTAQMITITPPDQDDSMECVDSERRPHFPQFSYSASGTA

In the case of `COc1cccc(C(=O)Nc2ccc(-c3nnc4n3-c3cccnc3Nc3ccccc3-4)cc2)c1` [Example 27, N-(4-(9H-benzo[f]pyrido[2,3-b][1,2,4]triazolo[4,3-d][1,4]diazepin-3-yl)phenyl)-3-methoxybenzamide], the half-maximal inhibitory concentration (IC50) (usually the concentration needed to halve the response being measured) was 25 µM in the experiment on AN3-CA, 23 µM with IGROV-1, 10 µM in the experiment with A2780 and 0.16 µM at AKT1.
The corresponding values for `Cc1ccc(C(=O)Nc2ccc(-c3nnc4n3-c3cccnc3Nc3ccccc3-4)cc2)cc1` [Example 30, N-(4-(9H-benzo[f]pyrido[2,3-b][1,2,4]triazolo[4,3-d][1,4]diazepin-3-yl)phenyl)-4-methylbenzamide] are 7 µM, 28 µM, 6 µM and 0.1 µM.
The corresponding values for `O=C(Nc1ccc(-c2nnc3n2-c2cccnc2Nc2ccccc2-3)cc1)c1ccc(F)cc1` [Example 56, N-(4-(9H-benzo[f]pyrido[2,3-b][1,2,4]triazolo[4,3-d][1,4]diazepin-3-yl)phenyl)-4-fluorobenzamide] are 28 µM, 70 µM, 14 µM and 0.11 µM.
The like results for `c1ccc(-c2nnc(C3CCN(Cc4ccc(-c5nnc6n5-c5cccnc5Nc5ccccc5-6)cc4)CC3)[nH]2)nc1` [Example 63, 3-(4-((4-(5-(pyridin-2-yl)-4H-1,2,4-triazol-3-yl)piperidin-1-yl)methyl)phenyl)-9H-benzo[f]pyrido[2,3-b][1,2,4]triazolo[4,3-d][1,4]diazepine] were, in that order, 34 µM, 10 µM, 17 µM and 0.084 µM.
For `CN(C)c1ccc(C(=O)NCc2ccc(-c3nnc4n3-c3cccnc3Nc3ccccc3-4)cc2)cc1` [Example 98, N-(4-(9H-benzo[f]pyrido[2,3-b][1,2,4]triazolo[4,3-d][1,4]diazepin-3-yl)benzyl)-4-(dimethylamino)benzamide], the 50% inhibitory concentration (IC50) in the experiment on AN3-CA was 8 µM; in the experiment with IGROV-1 it was over 100 µM; with A2780, 6 µM; at AKT1, 0.11 µM.
The like results for `NC1(c2ccc(-c3nnc4n3-c3cccnc3Nc3ccccc3-4)cc2)CCC1` [Example 126, 1-(4-(9H-benzo[f]pyrido[2,3-b][1,2,4]triazolo[4,3-d][1,4]diazepin-3-yl)phenyl)cyclobutanamine] were, in that order, 40 µM, 6 µM, 31 µM and 0.099 µM.
For `ClCc1ccc(-c2nnc3n2-c2cccnc2Nc2ccccc2-3)cc1` [Example 127, 3-(4-(chloromethyl)phenyl)-9H-benzo[f]pyrido[2,3-b][1,2,4]triazolo[4,3-d][1,4]diazepine], the IC50 in the experiment on IGROV-1 came to 13 µM; in the experiment on A2780, 9 µM; on AKT1, 1.9 µM.
As for `O=c1[nH]c2ccccc2n1C1CCN(Cc2ccc(-c3nnc4n3-c3ccccc3Nc3ccccc3-4)cc2)CC1` [Example 128, 1-(1-(4-(9H-dibenzo[b,f][1,2,4]triazolo[4,3-d][1,4]diazepin-3-yl)benzyl)piperidin-4-yl)-1H-benzo[d]imidazol-2(3H)-one], the IC50 in the experiment on IGROV-1 was over 100 µM; with A2780 it was 11 µM; on AKT1 it was 0.94 µM.
As for `Cc1ccc(S(=O)(=O)NC2(c3ccc(-c4nnc5n4-c4cccnc4Nc4ccccc4-5)cc3)CCC2)cc1` [Example 198, N-(1-(4-(9H-benzo[f]pyrido[2,3-b][1,2,4]triazolo[4,3-d][1,4]diazepin-3-yl)phenyl)cyclobutyl)-4-methylbenzenesulfonamide], the figures for the IC50 in the experiment with AN3-CA, in the experiment with A2780 and on AKT1 were 17 µM, 12 µM and 0.34 µM, respectively.
Take `Fc1ccc2c(CCNCc3ccc(-c4nnc5n4-c4cccnc4Nc4ccccc4-5)cc3)c[nH]c2c1` [Example 202, N-(4-(9H-benzo[f]pyrido[2,3-b][1,2,4]triazolo[4,3-d][1,4]diazepin-3-yl)benzyl)-2-(6-fluoro-1H-indol-3-yl)ethanamine]: the results for the IC50 in the experiment on AN3-CA, in the experiment with A2780 and at AKT1 were 15 µM, 4 µM and 0.21 µM, respectively.
The like results for `Clc1ccc2nc(CCNCc3ccc(-c4nnc5n4-c4cccnc4Nc4ccccc4-5)cc3)[nH]c2c1` [Example 203, N-(4-(9H-benzo[f]pyrido[2,3-b][1,2,4]triazolo[4,3-d][1,4]diazepin-3-yl)benzyl)-2-(6-chloro-1H-benzo[d]imidazol-2-yl)ethanamine] were, in that order, 13 µM, 10 µM and 0.15 µM.
As for `NC1(c2ccc(-c3nnc4n3-c3cccnc3Nc3ccc(Br)cc3-4)cc2)CCC1` [Example 219, 1-(4-(12-bromo-9H-benzo[f]pyrido[2,3-b][1,2,4]triazolo[4,3-d][1,4]diazepin-3-yl)phenyl)cyclobutanamine], the half-maximal inhibitory concentration (IC50) in the experiment on AN3-CA stood at 45 µM; in the experiment on IGROV-1, 10 µM; with A2780, 16 µM; on AKT1, 0.13 µM.
The corresponding values for `Brc1ccc2c(c1)-c1nnc(-c3ccc(CN4CCC(c5nnc(-c6ccccn6)[nH]5)CC4)cc3)n1-c1cccnc1N2` [Example 228, 12-bromo-3-(4-((4-(5-(pyridin-2-yl)-4H-1,2,4-triazol-3-yl)piperidin-1-yl)methyl)phenyl)-9H-benzo[f]pyrido[2,3-b][1,2,4]triazolo[4,3-d][1,4]diazepine] are 56 µM, 6 µM, 13 µM and 0.096 µM.
As for `CN(C)c1ccc(-c2nnc3n2-c2cccnc2Nc2ccccc2-3)cc1` [hydrochloride], the figures for the IC50 in the experiment with IGROV-1, with A2780 and on AKT1 were 90 µM, 17 µM and 1.6 µM, respectively.
